Patent publication US12227500B2, “Substituted pyrrolo[2,3-b]pyridines for suppressing toxic endoplasmic reticulum stress” (THE TRUSTEES OF COLUMBIA UNIVERSITY IN THE CITY OF NEW YORK, priority 2018, dated 2025)
Read-outs that look alike come from different tables or passages of the source.

What was measured:
[1] = system: human ES motor neurons carrying the ALS-causing SOD1^A4V mutation; test: cells; type: cell-based; conditions: 72 h; for EC50 / Emax: CPA 33 μM; for viability at 1 µM: CPA (33 μM) + compound (1 μM), read-out: Motor Neuron Survival, % untreated; for Emax: read-out: Emax (MN survival % untreated)
Description: Next, survival assays were performed with all the analogs at once to generate a low-variability dataset. All compounds were evaluated at concentrations ranging from 0.1-3.0 μM (five-point dilution) in three technical replicates and two biological replicates.

MLK1/MAP3K9 = biological target: T1, MLK1/MAP3K9 (Homo sapiens, UniProt P80192); test: Radiolabeled ATP kinase assay (Reaction Biology Corp.), MLK1; type: biochemical; conditions: [Cmpd] 0.1 μM, 10 μM ATP
T1 construct: purchased Reaction Biology Corp
Description: (§1) Meanwhile, the same analogs were analyzed in a radiolabeled ATP assay (10 μM ATP; Reaction Biology Corp.) to compare the extent to which they could inhibit the activity of HGK, MLK1, or MLK3 in a cell-free environment (Table S3 and S4).

MLK3/MAP3K11 = biological target: T2, MLK3/MAP3K11 (Homo sapiens, UniProt Q16584); test: Radiolabeled ATP kinase assay (Reaction Biology Corp.), MLK3; type: biochemical; conditions: [Cmpd] 0.1 μM; 10 μM ATP
T2 construct: purchased Reaction Biology Corp
Description: as §1

HGK/MAP4K4 = HGK/MAP4K4 (Homo sapiens, UniProt O95819); test: Radiolabeled ATP kinase assay (Reaction Biology Corp.), HGK; type: biochemical; set-up: purchased Reaction Biology Corp; conditions: 10 μM ATP, read-out: % Enzyme Activity (relative to DMSO controls), HGK/MAP4K4, Data 1; for remaining activity at 0.025 µM: [Cmpd] 0.025 μM; for remaining activity at 0.1 µM: [Cmpd] 0.1 μM
Description: as §1

[2] = read-out: % Enzyme Activity Remaining (relative to DMSO controls), MLK1/MAP3K9, Data 1
[3] = read-out: % Enzyme Activity Remaining (relative to DMSO controls), MLK1/MAP3K9, Data 2
[4] = Homo sapiens, Neuron, read-out: EC50

HGK/MAP4K4, sequence (O95819 whole entry): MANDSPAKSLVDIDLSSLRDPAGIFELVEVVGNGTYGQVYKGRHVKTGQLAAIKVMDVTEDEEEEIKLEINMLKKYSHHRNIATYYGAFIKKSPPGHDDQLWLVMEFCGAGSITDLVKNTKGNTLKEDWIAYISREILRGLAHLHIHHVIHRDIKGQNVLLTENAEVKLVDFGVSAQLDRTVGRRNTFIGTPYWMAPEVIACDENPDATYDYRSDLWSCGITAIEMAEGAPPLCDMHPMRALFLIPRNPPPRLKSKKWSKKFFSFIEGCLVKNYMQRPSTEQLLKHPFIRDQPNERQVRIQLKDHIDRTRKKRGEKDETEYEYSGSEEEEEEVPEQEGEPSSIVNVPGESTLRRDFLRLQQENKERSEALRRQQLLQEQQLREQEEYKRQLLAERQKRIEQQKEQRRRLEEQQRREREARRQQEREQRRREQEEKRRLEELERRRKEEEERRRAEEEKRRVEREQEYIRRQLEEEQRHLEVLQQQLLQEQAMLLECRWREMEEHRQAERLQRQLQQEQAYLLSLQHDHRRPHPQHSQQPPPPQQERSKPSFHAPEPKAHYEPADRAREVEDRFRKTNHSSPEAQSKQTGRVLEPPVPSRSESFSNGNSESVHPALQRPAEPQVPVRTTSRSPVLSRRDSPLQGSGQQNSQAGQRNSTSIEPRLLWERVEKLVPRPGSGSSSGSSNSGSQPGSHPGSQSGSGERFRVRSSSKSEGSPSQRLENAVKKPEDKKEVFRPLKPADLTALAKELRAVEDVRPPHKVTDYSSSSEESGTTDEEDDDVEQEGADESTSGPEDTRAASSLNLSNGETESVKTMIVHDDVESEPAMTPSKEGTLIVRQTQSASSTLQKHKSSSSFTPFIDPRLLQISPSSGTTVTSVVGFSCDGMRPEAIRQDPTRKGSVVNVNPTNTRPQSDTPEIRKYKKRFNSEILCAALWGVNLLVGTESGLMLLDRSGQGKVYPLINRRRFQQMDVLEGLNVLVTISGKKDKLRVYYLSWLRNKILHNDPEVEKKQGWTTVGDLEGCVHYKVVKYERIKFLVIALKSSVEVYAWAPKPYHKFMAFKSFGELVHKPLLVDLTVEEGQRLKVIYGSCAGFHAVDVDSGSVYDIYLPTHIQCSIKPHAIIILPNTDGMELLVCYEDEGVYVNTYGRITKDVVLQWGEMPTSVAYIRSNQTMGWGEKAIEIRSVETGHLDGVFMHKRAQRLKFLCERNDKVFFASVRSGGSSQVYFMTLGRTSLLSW
T1 sequence (P80192 whole entry): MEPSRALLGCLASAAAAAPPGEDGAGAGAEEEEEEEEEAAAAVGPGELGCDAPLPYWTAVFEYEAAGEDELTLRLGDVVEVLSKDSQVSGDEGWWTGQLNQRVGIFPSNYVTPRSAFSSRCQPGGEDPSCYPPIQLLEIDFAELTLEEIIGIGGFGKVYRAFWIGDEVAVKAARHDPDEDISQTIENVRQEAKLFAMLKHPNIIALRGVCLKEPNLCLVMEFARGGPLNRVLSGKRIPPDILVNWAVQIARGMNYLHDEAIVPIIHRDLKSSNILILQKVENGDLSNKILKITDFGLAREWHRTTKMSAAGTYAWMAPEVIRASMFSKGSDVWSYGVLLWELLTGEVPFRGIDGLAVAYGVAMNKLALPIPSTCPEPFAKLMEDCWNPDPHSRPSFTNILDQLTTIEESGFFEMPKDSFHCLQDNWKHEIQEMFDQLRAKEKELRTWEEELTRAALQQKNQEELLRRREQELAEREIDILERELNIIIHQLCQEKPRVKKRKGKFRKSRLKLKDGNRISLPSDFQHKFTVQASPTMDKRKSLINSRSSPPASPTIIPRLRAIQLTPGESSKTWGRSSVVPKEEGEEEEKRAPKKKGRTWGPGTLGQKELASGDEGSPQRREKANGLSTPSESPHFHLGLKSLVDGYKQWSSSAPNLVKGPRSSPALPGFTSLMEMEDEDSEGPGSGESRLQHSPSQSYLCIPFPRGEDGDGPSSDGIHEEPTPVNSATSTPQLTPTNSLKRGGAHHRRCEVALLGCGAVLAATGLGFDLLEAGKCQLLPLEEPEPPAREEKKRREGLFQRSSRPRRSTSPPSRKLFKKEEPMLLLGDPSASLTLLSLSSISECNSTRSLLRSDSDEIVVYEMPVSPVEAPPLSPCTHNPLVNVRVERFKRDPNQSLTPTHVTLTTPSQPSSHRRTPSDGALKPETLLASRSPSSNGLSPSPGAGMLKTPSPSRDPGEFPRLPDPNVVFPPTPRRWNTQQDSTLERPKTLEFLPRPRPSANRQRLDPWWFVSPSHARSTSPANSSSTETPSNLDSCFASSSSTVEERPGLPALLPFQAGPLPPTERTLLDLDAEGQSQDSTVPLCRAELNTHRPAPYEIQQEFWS
T2 sequence (Q16584 whole entry): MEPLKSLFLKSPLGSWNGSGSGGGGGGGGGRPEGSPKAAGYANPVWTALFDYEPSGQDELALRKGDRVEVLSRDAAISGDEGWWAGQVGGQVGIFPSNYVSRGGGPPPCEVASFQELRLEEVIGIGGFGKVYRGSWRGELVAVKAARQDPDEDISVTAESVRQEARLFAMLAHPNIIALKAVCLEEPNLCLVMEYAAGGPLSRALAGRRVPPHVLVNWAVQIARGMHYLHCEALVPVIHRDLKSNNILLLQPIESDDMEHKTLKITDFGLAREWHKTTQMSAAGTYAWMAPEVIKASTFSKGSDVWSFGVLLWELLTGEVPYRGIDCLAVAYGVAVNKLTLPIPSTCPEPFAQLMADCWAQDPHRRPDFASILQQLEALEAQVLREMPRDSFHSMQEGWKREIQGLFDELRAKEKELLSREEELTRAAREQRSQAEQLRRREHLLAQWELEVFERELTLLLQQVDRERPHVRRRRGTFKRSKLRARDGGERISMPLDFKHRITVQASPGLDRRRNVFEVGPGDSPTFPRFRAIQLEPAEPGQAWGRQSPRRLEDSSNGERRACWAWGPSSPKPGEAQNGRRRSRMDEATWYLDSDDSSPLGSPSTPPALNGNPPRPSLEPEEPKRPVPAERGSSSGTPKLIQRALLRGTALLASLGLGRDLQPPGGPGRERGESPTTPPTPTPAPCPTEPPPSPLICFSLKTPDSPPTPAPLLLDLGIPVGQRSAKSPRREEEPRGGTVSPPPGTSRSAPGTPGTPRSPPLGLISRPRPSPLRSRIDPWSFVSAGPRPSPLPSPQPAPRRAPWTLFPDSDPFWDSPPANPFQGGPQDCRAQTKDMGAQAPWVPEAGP

Row | Compound | EC50 [1] | viability at 1 µM ([1]; Homo sapiens, Neuron) [%] | Emax ([1]; Homo sapiens, Neuron) [%] | remaining activity at 0.1 µM (MLK1/MAP3K9; [2]) [%] | remaining activity at 0.1 µM (MLK1/MAP3K9; [3]) [%] | % Enzyme Activity Remaining (relative to DMSO controls), MLK3/MAP3K11, Data 1 (MLK3/MAP3K11) [%] | % Enzyme Activity Remaining (relative to DMSO controls), MLK3/MAP3K11, Data 2 (MLK3/MAP3K11) [%] | remaining activity at 0.025 µM (HGK/MAP4K4) [%] | remaining activity at 0.1 µM (HGK/MAP4K4) [%] | EC50 [1, 4] [nM]
1 | CN1CCN(Cc2ccc(-c3cnc4[nH]ccc4c3)cc2)CC1 [Compound 4, 5-(4-((4-Methylpiperazin-1-yl)methyl)phenyl)-1H-pyrrolo[2,3-b]pyridine] | Ambiguous | 10.3 | 13.7 | 95.9 | 93.5 | 91.95 | 94.97 | 101 | 88.3 | 
2 | CN1CCN(Cc2ccc(-c3cnc4[nH]cc(-c5cccc(C(F)(F)F)c5)c4c3)cc2)CC1 [Compound 7ab, 5-(4-((4-Methylpiperazin-1-yl)methyl)phenyl)-3-(3-(trifluoromethyl)phenyl)-1H-pyrrolo[2,3-b]pyridine] |  | 60.7 | 60.7 | 83.7 | 82.9 | 68.47 | 70.51 | 26.6 | 4.65 | 1280
3 | CN1CCN(Cc2ccc(-c3cnc4[nH]cc(-c5ccccc5)c4c3)cc2)CC1 [Compound 7ac, 5-(4-((4-Methylpiperazin-1-yl)methyl)phenyl)-3-phenyl-1H-pyrrolo[2,3-b]pyridine] |  | 75.9 | 110 | 60.8 | 57.7 | 42.00 | 43.30 | 31.9 | 6.69 | 774
4 | CN1CCN(Cc2ccc(-c3cnc4[nH]cc(-c5ccc(Cl)cc5Cl)c4c3)cc2)CC1 [Compound 7ae, 3-(2,4-Dichlorophenyl)-5-(4-((4-methylpiperazin-1-yl)methyl)phenyl)-1H-pyrrolo[2,3-b]pyridine] |  | 32 | 32 | 92.5 | 91.8 | 84.17 | 86.93 | 67.9 | 42.7 | 533
5 | Cc1ccc(C)c(-c2c[nH]c3ncc(-c4ccc(CN5CCN(C)CC5)cc4)cc23)c1 [Compound 7af, 3-(2,5-Dimethylphenyl)-5-(4-((4-methylpiperazin-1-yl)methyl)phenyl)-1H-pyrrolo[2,3-b]pyridine] |  | 38.6 | 67.5 | 92.6 | 90.6 | 75.32 | 81.31 | 69 | 38.7 | 1340
6 | CN1CCN(Cc2ccc(-c3cnc4[nH]cc(-c5ccc6cnn(C)c6c5)c4c3)cc2)CC1 [Compound 7ag, 1-Methyl-6-(5-(4-((4-methylpiperazin-1-yl)methyl)phenyl)-1H-pyrrolo[2,3-b]pyridin-3-yl)-1H-indazole] |  | 73.3 | 88 | 50.9 | 50 | 54.67 | 52.80 | 32.5 | 7.91 | 418
7 | CNC(=O)Nc1cccc(-c2c[nH]c3ncc(-c4ccc(CN5CCN(C)CC5)cc4)cc23)c1 [Compound 7ak, 1-Methyl-3-(3-(5-(4-((4-methylpiperazin-1-yl)methyl)phenyl)-1H-pyrrolo[2,3-b]pyridin-3-yl)phenyl)urea] |  | 78.5 | 112 | 34.2 | 32.8 | 48.06 | 48.02 | 41.7 | 14.2 | 650
8 | COC(=O)Nc1cccc(-c2c[nH]c3ncc(-c4ccc(CN5CCN(C)CC5)cc4)cc23)c1 [Compound 7al, Methyl (3-(5-(4-((4-methylpiperazin-1-yl)methyl)phenyl)-1H-pyrrolo[2,3-b]pyridin-3-yl)phenyl)carbamate] |  |  | 113 | 33.4 | 32.7 | 32.96 | 30.90 | 33.8 | 6.76 | 670
9 | CNC(=O)Nc1ccc(-c2c[nH]c3ncc(-c4ccc(CN5CCN(C)CC5)cc4)cc23)cc1 [Compound 7am, 1-Methyl-3-(4-(5-(4-((4-methylpiperazin-1-yl)methyl)phenyl)-1H-pyrrolo[2,3-b]pyridin-3-yl)phenyl)urea] |  | 80 | 122 | 51 | 51.2 | 49.77 | 46.17 | 56 | 17.7 | 948
10 | COC(=O)Nc1ccc(-c2c[nH]c3ncc(-c4ccc(CN5CCN(C)CC5)cc4)cc23)cc1 [Compound 7an, Methyl (4-(5-(4-((4-methylpiperazin-1-yl)methyl)phenyl)-1H-pyrrolo[2,3-b]pyridin-3-yl)phenyl)carbamate] |  | 75 | 100 | 68.7 | 65.4 | 65.74 | 63.06 | 39.9 | 10.2 | 534
11 | COc1ccc(COc2ccc(-c3c[nH]c4ncc(-c5ccc(CN6CCN(C)CC6)cc5)cc34)cc2)cc1 [Compound 7ao, 3-(4-((4-Methoxybenzyl)oxy)phenyl)-5-(4-((4-methylpiperazin-1-yl)methyl)phenyl)-1H-pyrrolo[2,3-b]pyridine] | Ambiguous | 95.9 | 95.9 | 49 | 47.1 | 35.75 | 32.77 | 21.3 | 1.98 | 
12 | Cc1ccc(S(=O)(=O)n2cc(-c3ccc4[nH]ccc4c3)c3cc(-c4ccc(C=O)cc4)cnc32)cc1 [Compound 11, 4-(3-(1H-Indol-5-yl)-1-tosyl-1H-pyrrolo[2,3-b]pyridin-5-yl)benzaldehyde] |  |  |  | 95 | 95.5 | 93.68 | 88.60 | 102 | 85.5 | 
13 | c1cc2cc(-c3c[nH]c4ncc(-c5ccc(CN6CC7CCC(C6)O7)cc5)cc34)ccc2[nH]1 [Compound 12a, 3-(4-(3-(1H-Indol-5-yl)-1H-pyrrolo[2,3-b]pyridin-5-yl)benzyl)-8-oxa-3-azabicyclo[3.2.1]octane] |  |  |  | 56.2 | 46.5 | 52.18 | 46.74 | 72.8 | 51.5 | 
